These results are taken from PubChem BioAssay AID651872 (NMMLSC, 2012).

As usually defined, the EC50 is the concentration giving half of the maximal effect.

The assay has as its target Beta-2 adrenergic receptor (Homo sapiens) (UniProt P07550). Nature of the assay: beta2AR agonists driving receptor internalization, dose response, cell-based, FAP fluorogen, flow cytometry, powder set 4 (AID 651872). Particulars: AM2.2-beta2AR cells, 90 min. For orientation: In flow cytometry, cells or beads pass a laser one at a time.

Chain of Beta-2 adrenergic receptor (Homo sapiens) (P07550 whole entry, looked up): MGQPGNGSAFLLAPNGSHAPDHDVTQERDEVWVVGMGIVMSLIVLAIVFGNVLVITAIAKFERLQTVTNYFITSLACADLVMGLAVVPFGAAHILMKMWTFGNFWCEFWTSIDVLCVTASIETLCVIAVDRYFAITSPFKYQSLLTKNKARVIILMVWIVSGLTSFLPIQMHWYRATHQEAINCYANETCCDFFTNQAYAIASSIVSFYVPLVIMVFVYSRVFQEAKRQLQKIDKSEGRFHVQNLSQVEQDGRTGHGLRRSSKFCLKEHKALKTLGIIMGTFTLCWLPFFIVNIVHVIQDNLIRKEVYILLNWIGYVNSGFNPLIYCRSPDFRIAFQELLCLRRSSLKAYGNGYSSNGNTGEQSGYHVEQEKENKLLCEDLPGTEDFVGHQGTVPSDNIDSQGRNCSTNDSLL

As for `O=C(CN(Cc1ccccc1)S(=O)(=O)c1ccc(Cl)cc1)N1CCN(c2ccccn2)CC1`, the EC50 is 208 nM.

Consider `CC(=O)Nc1ccc(S(=O)(=O)N2CCCCC2c2cccnc2)cc1` (stereo unspecified), for which the EC50 was 10.5 nM.

Consider `CN(CC(=O)N1CCN(c2cccc(C(F)(F)F)c2)CC1)S(=O)(=O)c1ccc(F)cc1`, for which the EC50 is 9640 nM.

With `Cc1ccc(S(=O)(=O)N(C)CC(=O)N2CCN(c3ccccn3)CC2)cc1`, the EC50 was 1.6 nM.

For `COc1ccccc1N1CCN(C(=O)CN(C)S(=O)(=O)c2ccc(C)cc2)CC1`, the EC50 is 676 nM.

Consider `O=C(C1CCC(=O)N1S(=O)(=O)c1ccccc1)N1CCN(c2ccccn2)CC1` (stereo unspecified), for which the EC50 was 26.2 nM.
